Data set [1] has as its system Salmonella typhimurium strain TA100. To be noted: 10 and 100 μM (Figure 1).
The test system of data set [2] is Salmonella typhimurium strain TA98. To be noted: for concentration dependence of mutagenicity (revertants/plate): 0.1-100 μM.
For data set [3] the test system is unchanged. To be noted: cited from earlier work.
For data set [4], the system named is primary normal human lung cells. To be noted: 0.1 to 10 μM; cited from earlier work.
Data set [5] concerns Salmonella typhimurium strain TA100. To be noted: cited from earlier work.
The subject of data set [6] is lung adenoma. To be noted: cited from earlier work.
The mark [7] stands for this setting: 0.5 mg human lung microsomes, presence of NADPH.
[8] abbreviates: 2 mg rat liver S9, presence of NADPH.
Where [9] appears, read: 10 μM, 50 pmol 1A1 Supersomes, presence of NADPH.
The mark [10] stands for this setting: 10 μM, 50 pmol recombinant 2A13, presence of NADPH.
The mark [11] stands for this setting: 0.5 mg human lung microsomes, presence of NADPH, equal concentrations.

Entries after “also recorded” stand apart in the source; their conditions may differ. Where two headings read alike, the source gives them in different places.

`Cc1c[nH]c2ccccc12` [3MI, 3-methylindole]: the “mutagenicity (revertants/plate)” value in data set [1] (setting [7]) is “failed to increase mutagenesis at any concentration”; in data set [1] (setting [8]), “failed to increase mutagenesis at any concentration”; in data set [2] (setting [9]), “statistically significant increases in mutagenicity”; in data set [2] (setting [10]) it was “statistically significant increases in the number of revertants per plate; also recorded: highest levels of mutagenicity”; in data set [2] (2 mg human liver S9, presence of NADPH) it was “Neither incubation of 3MI with Salmonella typhimurium strain TA98 and 2 mg human liver S9, or 2 mg rat liver S9 was mutagenic; also recorded: failed to produce 3MI-mediated mutagenesis”; in data set [2] (setting [8]), “Neither incubation of 3MI with Salmonella typhimurium strain TA98 and 2 mg human liver S9, or 2 mg rat liver S9 was mutagenic; also recorded: failed to produce 3MI-mediated mutagenesis”. For the same compound, the “mutagenicity (number of mutants)” value in data set [2] (10 μM, 50 pmol purified 2F3, presence of NADPH) is “significant increase in the number of mutants”. Further, the “cytotoxicity to bacteria (density of background lawn)” value in data set [2] (100 μM, 0.5 mg human lung microsomes) is given as “cytotoxic”. Moreover, the “concentration dependence of mutagenicity (revertants/plate)” value in data set [2] (setting [7]) is given as “increasing mutagenicity up through the 10 μM concentration, but lower revertants/plate with the highest concentration (100 μM)”. For the same compound, the “mutagenicity compared to BaP” value in data set [2] (setting [11]) was “more mutagenic than BaP was at the 1.0 μM (p=0.006) and 10 μM (p=0.005) concentrations, although not at the 0.1 μM (p=0.1) or 100 μM (p=0.9) concentrations”. Further, in data set [2] (setting [11]), the “mutagenicity compared to NNK” value was “significantly more mutagenic than NNK was at the 0.1 μM (p=0.05), 1.0 μM (p=0.002), and 10 μM (p=0.007) concentrations, although not at the 100 μM (p=0.8) concentration”. Moreover, the results for the mutagenicity result in data set [3] (purified CYP2F3), in data set [3] (rat liver S9 fractions) and in data set [5] (rat liver S9) were “mutagenic”, “not mutagenic” and “not mutagenic”, respectively. The “induction of markers of carcinogenesis” value in data set [4] was “induce markers of carcinogenesis, including DNA damage and p53 nuclear localization”.

For the compound `Nn1nnc2ccccc21` [ABT, 1-aminobenzotriazole, reference compound], in data set [2] (0.5 mM ABT alone, 0.5 mg human lung microsomes), the “mutagenicity of inhibitor alone” value was “did not prove to be mutagenic”. Also, the “effect on 3MI-mediated mutagenesis” value in data set [2] (0.5 mM ABT with 100 μM 3MI, 0.5 mg human lung microsomes, presence of NADPH) is listed as “completely inhibited the mutagenesis”. Moreover, the “effect on B(a)P-mediated mutagenesis” value in data set [2] (0.5 mM ABT with 100 μM B(a)P, 0.5 mg human lung microsomes, presence of NADPH) was “completely inhibited the mutagenesis”. In data set [2] (0.5 mM ABT with 100 μM NNK, 0.5 mg human lung microsomes, presence of NADPH), the “effect on NNK-mediated mutagenesis” value was “completely inhibited the mutagenesis”.

Regarding `CN(CCCC(=O)c1cccnc1)N=O` [NNK, 4-(methylnitrosamino)-1-(3-pyridyl)-1-butanone, reference compound], the “mutagenicity (revertants/plate)” value in data set [1] (setting [7]) is on record as “failed to increase mutagenesis at any concentration”; in data set [1] (setting [8]), “failed to increase mutagenesis at any concentration”; in data set [2] (setting [9]), “did not result in an increased number of revertants”; in data set [2] (setting [10]), “statistically significant increases in the number of revertants per plate”. For the same compound, the “concentration dependence of mutagenicity (revertants/plate)” value in data set [2] (setting [7]) is “mutagenicity increased in a concentration-dependent manner up through the 100 μM concentration”. In data set [5], the “base pair substitution mutations” value is recorded as “does not cause base pair substitution mutations”.

Turning to `COc1c2occc2cc2ccc(=O)oc12` [8-MOP, 8-methoxypsoralen], the chemopreventive effect entry in data set [6] was “chemopreventive effect”.

These data come from publication PMC2981624 (Chemical research in toxicology, 2010).
